Measurements: the NIST ThermoML archive (doi:10.1016/j.jct.2017.10.014)
± gives the expanded uncertainty stated by the source.

Details: Liquid; for mass density: 100 kPa, Vibrating tube method; for viscosity: 101.33 kPa, Concentric cylinders viscometry

CC(C)(CO)[C@@H](O)C(=O)NCCCO [d-Panthenol]
Details	mass density [kg/m3]	viscosity [mPa·s]
293.15 K	1165.18 ± 1.9	527287 ± 66000
298.15 K	1161.68 ± 1.9	261544 ± 30000
303.15 K	1158.27 ± 1.9	125673 ± 13000
308.15 K	1154.96 ± 1.9	68487 ± 6700
313.15 K	1151.46 ± 1.9	37252 ± 3300
